Laboratory results taken from the CheMixHub ionic liquid set.

Assay: xn = mol fraction of the nth substance listed
Settings: 101 kPa

F[B-](F)(F)F.[Li+] + CC[n+]1ccn(C)c1.O=S(=O)([N-]S(=O)(=O)C(F)(F)F)C(F)(F)F
electrical conductivity [S/m]
Settings	x2 = 0.7088	x2 = 0.7396	x2 = 0.8073	x2 = 0.8856	x2 = 0.9623
288.15 K	–	0.238	0.31	0.431	0.542
298.15 K	0.295	0.384	0.489	0.651	0.807
333.15 K	1.01	1.18	1.4	1.72	2.03

CC(C)=O + CC(=O)[O-].CC[NH2+]CC
Settings	viscosity [mPa·s]
298.15 K, x2 = 0	0.309

CC(C)[C@H](N)C(=O)O + CCCCCCCCCCCC[N+](C)(C)Cc1ccccc1.[Cl-] + O
electrical conductivity [S/m]
Settings	293.15 K	298.15 K	303.15 K	308.15 K	313.15 K
x1 = 0.0008894, x2 = 0	0.000591	0.000675	0.000763	0.000854	0.000953
x1 = 0.001757, x2 = 0	0.00102	0.00116	0.00131	0.00147	0.00164
